# Source: PubChem BioAssay AID2060902 (Molecular Pharmacology Branch, DTP, NCI, 2025)
# pIC50: −log10 of the molar value.
# Tested on: 485368-065-R3-J5-PDC spheroids with HUVEC/MSC, viability
# Experiment: Anticancer human tumor 485368-065-R3-J5-PDC patient-derived pancreatic carcinoma cell line growth inhibition [RAS]
# Details: for viability, T/C: stronger effect = lower value; for pIC50: curve of first compound
# Text: RAS pathway inhibitors in Combinations in Complex Spheroids
# A high-throughput screen of multi-cell type tumor spheroids was designed to identify active combinations of RAS pathway inhibitors and targeted small molecules. Complex spheroids include a stromal component modeled by human endothelial cells (HUVEC) and fibroblasts modeled by human mesenchymal stem cells (MSCs). The concentration ranges selected for each drug and investigational agent were based upon clinically achievable concentrations if the clinical Cmax of the agent was known.
# Compounds. The drugs and investigational agents: abemaciclib (NSC768073), cobimetinib (NSC768068), divarasib (GDC6063, NSC841802), docetaxel (NSC628503), GDC-1971 (RLY-1971, NSC841576), gemcitabine (NSC613327), inavolisib (NSC800729), ipatasertib (NSC767898), KB-0742 (NSC834161), MRTX-1133 (NSC836407), osimertinib (NSC779217), RMC-4630 (NSC839698), RMC-6236 (NSC851965), RMC-6291 (NSC852671), Ro-3306 (NSC812927), sapanisertib (NSC764658), SN-38 (NSC673596), staurosporine (NSC755774), SY5609 (NSC837396), and tovorafenib (DAY101, NSC766906), were obtained from the National Cancer Institute (NCI) Developmental Therapeutics Program Chemical Repository. The FDA-approved anticancer drug set is available from the NCI Developmental Therapeutics Program. […] The stock solutions were prepared in dimethyl sulfoxide (DMSO, Sigma-Aldrich, St. Louis, MO, cat. D2650) at 800-fold the tested concentration and stored at -70 degrees C prior to their use. All drugs and investigational agents were tested over a range starting from a high concentration at or near the clinical Cmax and decreasing in half-log increments. If the clinical Cmax for an agent had not been determined, the highest concentration tested was 10 microM.
# Cell Culture. All cells were maintained in an incubator at 37 degrees C and 5% CO2 with 95% humidity. The PDC lines were cultured according to standard operating procedures established by the NCI PDMR. All PDCs were thawed and cultured in Matrigel-coated flasks prepared with a working solution of 1X Ham's F-12 nutrient mix, without supplementation (Invitrogen, Waltham, MA, cat. 11765054), 100 U/mL penicillin-streptomycin (Invitrogen, cat. 15140122), and 2.5% Matrigel (Corning Inc., Corning, NY, cat. 354248) for the first three passages. The 362531-283-R-J2-PDC and 782815-120-R-J1-PDC lines were cultured in 6C/Colon 1B media, which includes advanced DMEM/F-12 (Thermo Fisher Scientific, cat. 12634028), 10 mM HEPES (Thermo Fisher Scientific, cat. 15630080), 1X GlutaMAX supplement (Thermo Fisher Scientific, cat. 35050061), 0.1 mg/mL primocin (InvivoGen, San Diego, CA, cat. ant-pm-2), 10% defined fetal bovine serum, heat inactivated (HyClone Laboratories Inc., Logan, UT, cat. SH30070.03HI), 50% L-WRN conditioned media (ATCC, cat. CRL-3276), 1.25 mM N-Acetyl-L-cysteine (Sigma-Aldrich, cat. A9165), 10 mM nicotinamide (Sigma-Aldrich, cat. N0636), 1X B-27 supplement (Thermo Fisher Scientific, cat. 17504044), 1X N-2 supplement (Thermo Fisher Scientific, cat. 17502048), 50 ng/mL human EGF (Thermo Fisher Scientific, cat. PHG0311), and 10 microM Y-27632 dihydrochloride (Tocris Bioscience, cat. 1254). The K12877-001-R-J1-PDC line was cultured in 6I media, which includes all 6C/Colon 1B media plus 10 ng/mL human FGF-10 (PeproTech, cat. 100-26), 1 ng/mL human FGF-2 (PeproTech, cat. 100-18B), 1 µM prostaglandin E2 (Tocris Bioscience, cat. 2296), […] hydrocortisone (Sigma-Aldrich, cat. H4001), and […] bovine insulin (Sigma-Aldrich, cat. I6634). The K86415-001-R-J1-PDC line was cultured in 6D media, which includes all 6C/Colon 1B media components minus the L-WRN conditioned media. The 485176-168-R4-J1-PDC was cultured in PANC media, which includes all 6C/Colon 1B media plus 100 ng/mL human FGF-10 (PeproTech, cat. 100-26), 500 nM SB-431542 (Selleckchem, cat. S1067), and 10 nM gastrin (Tocris Bioscience, cat. 3006). […]
# 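Note: spheroids exposed to agents for seven days before readout.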
smiles,measurement,setting,value
C#Cc1c(F)ccc2cc(O)cc(-c3ncc4c(N5CC6CCC(C5)N6)nc(OCC56CCCN5CC(F)C6)nc4c3F)c12 (centres undefined),"viability, T/C",compound 0.0316 µM,105% [middle of 8 runs]
same,"viability, T/C",compound 0.1 µM,108% [middle of 8 runs]
same,"viability, T/C",compound 0.316 µM,100% [middle of 8 runs]
same,"viability, T/C",compound 1 µM,99.4% [middle of 8 runs]
same,"viability, T/C",compound 3.16 µM,76.5% [middle of 8 runs]
same,"viability, T/C",compound 10 µM,42.4% [middle of 8 runs]
same,IC50,"compound alone, run of 07/15/2024",7.73 µM [middle of 8 runs]
CC1(C)CCC(Nc2ncc(C(F)(F)F)c(-c3c[nH]c4c(P(C)(C)=O)c(C#N)ccc34)n2)CN1 (centres undefined) + C=CC(=O)N1CCN(c2nc(OCC3CCCN3C)nc3c(F)c(-c4nc(N)cc(C)c4C(F)(F)F)c(Cl)cc23)C(C)C1,pIC50,second compound 0.00316 µM,8.63
same,pIC50,second compound 0.01 µM,8.58
same,pIC50,second compound 0.0316 µM,8.43
same,pIC50,second compound 0.1 µM,8.40
same,pIC50,second compound 0.316 µM,8.54
same,pIC50,second compound 1 µM,8.40
same,"viability, T/C","second compound 0.00316 µM, first compound 0.000949 µM",92.5%
same,"viability, T/C","second compound 0.00316 µM, first compound 0.003 µM",39.1%
same,"viability, T/C","second compound 0.00316 µM, first compound 0.00949 µM",26.9%
same,"viability, T/C","second compound 0.00316 µM, first compound 0.03 µM",26.3%
same,"viability, T/C","second compound 0.00316 µM, first compound 0.0949 µM",30.9%
same,"viability, T/C","second compound 0.00316 µM, first compound 0.3 µM",27.9%
same,"viability, T/C","second compound 0.01 µM, first compound 0.000949 µM",87.5%
same,"viability, T/C","second compound 0.01 µM, first compound 0.003 µM",44.9%
same,"viability, T/C","second compound 0.01 µM, first compound 0.00949 µM",26.5%
same,"viability, T/C","second compound 0.01 µM, first compound 0.03 µM",28.2%
same,"viability, T/C","second compound 0.01 µM, first compound 0.0949 µM",28.2%
same,"viability, T/C","second compound 0.01 µM, first compound 0.3 µM",29.1%
same,"viability, T/C","second compound 0.0316 µM, first compound 0.000949 µM",73.6%
same,"viability, T/C","second compound 0.0316 µM, first compound 0.003 µM",54%
same,"viability, T/C","second compound 0.0316 µM, first compound 0.00949 µM",32.8%
same,"viability, T/C","second compound 0.0316 µM, first compound 0.03 µM",30.6%
same,"viability, T/C","second compound 0.0316 µM, first compound 0.0949 µM",30.8%
same,"viability, T/C","second compound 0.0316 µM, first compound 0.3 µM",28.2%
same,"viability, T/C","second compound 0.1 µM, first compound 0.000949 µM",83.5%
same,"viability, T/C","second compound 0.1 µM, first compound 0.003 µM",55.5%
same,"viability, T/C","second compound 0.1 µM, first compound 0.00949 µM",32.3%
same,"viability, T/C","second compound 0.1 µM, first compound 0.03 µM",30.9%
same,"viability, T/C","second compound 0.1 µM, first compound 0.0949 µM",30.5%
same,"viability, T/C","second compound 0.1 µM, first compound 0.3 µM",34.3%
same,"viability, T/C","second compound 0.316 µM, first compound 0.000949 µM",100%
same,"viability, T/C","second compound 0.316 µM, first compound 0.003 µM",48.4%
same,"viability, T/C","second compound 0.316 µM, first compound 0.00949 µM",32.6%
same,"viability, T/C","second compound 0.316 µM, first compound 0.03 µM",28.4%
same,"viability, T/C","second compound 0.316 µM, first compound 0.0949 µM",30.6%
same,"viability, T/C","second compound 0.316 µM, first compound 0.3 µM",27.4%
same,"viability, T/C","second compound 1 µM, first compound 0.000949 µM",87.1%
same,"viability, T/C","second compound 1 µM, first compound 0.003 µM",55.1%
same,"viability, T/C","second compound 1 µM, first compound 0.00949 µM",35.8%
same,"viability, T/C","second compound 1 µM, first compound 0.03 µM",25.6%
same,"viability, T/C","second compound 1 µM, first compound 0.0949 µM",32.1%
same,"viability, T/C","second compound 1 µM, first compound 0.3 µM",34.2%
